In patent US10701876B2, “Production of plants using somatic embryogenesis” (MARS, INCORPORATED, priority 2013, dated 2020):

Tested on: Theobroma cacao L. CCN-10 clones, primary somatic embryo epicotyl/cotyledon explants
Assay: Direct secondary somatic embryogenesis from primary somatic embryo explants (hormone balance and stressor test)
Format: cell-based
Description: For the production of secondary embryos, epicotyls are taken from primary somatic embryos with size 1 cm and 40 mg of weight and they were cut in 10-15 pieces and placed into flask with 25 ml of liquid medium for embryogenic induction (Table 5) with some modifications in the experimental design (Table 7) per 5 weeks (step c). The culture is exposed to a light:dark 16:8 photoperiod, at a temperature of 27±2° C. and photosynthetic active radiation (PAR) or photosynthetic photon flux density (PPFD) of 50-190 μmol/m^2 per second. After this period, the somatic embryos in globular stage are transferred into the Petri dish in semi-solid developing media (Table 6) with some modifications (Table 8), with a 21-day culture period in light conditions until the embryos express and develop to the heart or early torpedo stage. Afterward, the cultures were transferred into the Petri dish in the same medium, but without gibberellic acid and with the same culture conditions but in the dark with transferences every 14 days for embryo's maturation. A variety of media were tested to assess the concentrations of plant hormones and stressors to be used in direct secondary somatic embryogenesis, as set forth in the following tables: [table] [table] Cotyledon explants were collected 40 days after induction and were used for study. Samples were fixed with FAA [10% formalin, 5% acetic acid, 50% ethanol (v/v)] per 8 days. The sample must be previously cut into approximately 0.5 to 1.0 mm. Do three (3) washes of 5 minutes each with distilled water or buffer to remove the fixative. […] the material in increasing concentrations of ethanol for at least 1 h of 70%, 85% and 95% at room temperature (incubation time varies with the kind of the material). Since the experiments were established, evaluations have been performed every 14 days, and some dependent variables like: number of calluses formed, number of normal embryos without callus formation, number of abnormal embryos without callus formation, number of pro-embryogenic masses, number of torpedo embryos, number of heart embryos, number of globular embryos, and overall observations. The Dino-Lite digital microscope premier, AM4113/AD4113 series was used for the observations. The experiment was a sequence of mediums where the first was induction medium (Table 7) followed by combination with develop medium (Table 8). The factorial analysis was 5×2, in view of the testing of 2 sucrose concentrations (40 and 80 g/l) and 5 gibberellic acid concentrations (0.0, 0.2, 0.4, 0.6 and 1.0 mg/l), using a completely randomized design.

SMILES	direct somatic embryos developed by embryonic regions of cotyledon explants (histological analysis) (induction medium with 1.0 mg/L BAP and 40 g/L sucrose, 40 days of culture (FIG. 5))	quantity of abnormal embryos (1 mg/l gibberellic acid and 40 g/l sucrose in development medium, compared with the other treatments (FIG. 4))	expression of direct somatic embryos (number of embryos produced) (different concentrations of gibberellic acid in combination with 40 g/L or 80 g/L sucrose (FIG. 4))	normal embryos (sequence of media: induction 1.0 mg/l BAP + 40 g/l sucrose, light, 40 days, then 0.6 mg/l gibberellic acid + 40 g/l sucrose, light, 21 days, then same medium without gibberellic acid, darkness) [%]
c1ccc(CNc2ncnc3nc[nH]c23)cc1 [BAP, 6-benzylaminopurine]	large numbers of direct somatic embryos in globular and heart stage			
C=C1C[C@]23C[C@@]1(O)CC[C@H]2[C@@]12C=C[C@H](O)[C@@](C)(C(=O)O1)[C@H]2[C@@H]3C(=O)O [gibberellic acid]		highest quantity of abnormal embryos	influenced the expression of direct somatic embryos	83.3
